Ten compounds from ChEMBL document CHEMBL1201862, “PubChem BioAssay data set” (2004) can be followed below.

Some test systems named below: SK-MEL-2; UO-31; IGROV-1; OVCAR-8; M14; HCT-15; TK-10; A498; Malme-3M; RPMI-8226; NCI-H23; SK-OV-3; OVCAR-4; RXF 393; OVCAR-5; HCT-116; HOP-62; HCC 2998.
Holding throughout (experiment): NCI-60 cell line screen, 48 h

SMILES strings stand for the structures.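 Each compound was tested at five concentrations against cells in 96-well plates for 48 hours. At the GI50, growth is halved.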 Active and inactive are the calls of the source. No stated cut-off is given here; in the data, active = GI50 up to about 1.1 µM and inactive = higher. Some results are limits rather than exact numbers.

Take `COc1ccccc1C1C(C(=O)O)=C(CO)Oc2cc3c(cc21)OCO3` (stereo unspecified): the GI50 is > 100 µM (inactive) in the assay on SK-MEL-2; > 100 µM (inactive) with UO-31; > 100 µM (inactive) in the assay with IGROV-1; > 100 µM (inactive) in the assay with OVCAR-8; > 100 µM (inactive) with M14; over 100 µM in the assay with HCT-15. Also, the GI50 with TK-10, in the assay on A498, in the assay with Malme-3M, with RPMI-8226, in the assay on NCI-H23 and in the assay with SK-OV-3 was > 100 µM (inactive) in each case.

Regarding `Cc1cc(C(C)(C)C)cc(Cc2cc(C(C)(C)C)cc(Cc3cc(C(C)(C)C)cc(C)c3O)c2O)c1O`, the GI50 is 10.4 µM (inactive) in the assay with SK-MEL-2; 13.2 µM (inactive) in the assay on UO-31; 11.3 µM (inactive) with IGROV-1; 7.5 µM (inactive) in the assay with OVCAR-4; 2.19 µM (inactive) in the assay on RXF 393; 17.5 µM (inactive) with OVCAR-5. The GI50 in the assay with OVCAR-8 was 5.5 µM (inactive); with M14, 7.26 µM (inactive); in the assay with HCT-116, 3.13 µM (inactive); in the assay with HCT-15 it was 11.9 µM; in the assay on HOP-62, 15.4 µM (inactive); in the assay with TK-10 it was 16.3 µM (inactive). The GI50 in the assay with A498 was 19.5 µM (inactive); with Malme-3M, 10.7 µM (inactive); with RPMI-8226, 2.47 µM (inactive); in the assay with NCI-H23 it was 10 µM (inactive); in the assay on SK-OV-3 it was 14.1 µM (inactive).

For `Cc1cc(Cl)ccc1/N=C1/NC(=O)C(CC(=O)Nc2cccc(C)c2C)S1` (stereo unspecified), the GI50 was 20.8 µM (inactive) in the assay on SK-MEL-2; 21.6 µM (inactive) in the assay on UO-31; 26.2 µM (inactive) in the assay on HCC 2998; 34.8 µM (inactive) in the assay on IGROV-1; 26.7 µM (inactive) in the assay with OVCAR-4; 31.7 µM (inactive) with OVCAR-5. For the same compound, the GI50 in the assay with OVCAR-8 was 26.5 µM (inactive); in the assay on M14 it was 18.1 µM (inactive); in the assay with HCT-15, 28.4 µM; in the assay on HOP-62, 24 µM (inactive); in the assay with TK-10, 39.3 µM (inactive); in the assay on A498, 16.9 µM (inactive). Also, the GI50 in the assay with Malme-3M was 24.2 µM (inactive); in the assay with RPMI-8226 it was 19.7 µM (inactive); with NCI-H23, 18.2 µM (inactive); in the assay with SK-OV-3, 30.4 µM (inactive).

For `CCCCC1=CSC(c2ccccc2)=C(c2ccccc2)S1`, the GI50 is > 100 µM (inactive) with UO-31; 37.6 µM (inactive) in the assay with HCC 2998; > 100 µM (inactive) with IGROV-1; 37.6 µM (inactive) in the assay on OVCAR-4; 73.8 µM (inactive) with OVCAR-8; 85.1 µM (inactive) with M14. The GI50 in the assay on HCT-116 is 6.46 µM (inactive); in the assay with HCT-15 it was 26.2 µM; in the assay on TK-10, > 100 µM (inactive); with A498, > 100 µM (inactive); in the assay on RPMI-8226, 9.23 µM (inactive); in the assay with NCI-H23 it was 36.1 µM (inactive). In addition, the GI50 in the assay with SK-OV-3 is > 100 µM (inactive).

In the case of `CC1C=CC(=O)C(n2cc(F)c(=O)[nH]c2=O)O1` (stereo unspecified), the GI50 in the assay with UO-31 is 16.4 µM (inactive); with IGROV-1, 20.8 µM (inactive); with OVCAR-4, 18.5 µM (inactive); in the assay with RXF 393, 19.8 µM (inactive); in the assay on OVCAR-8, 22.4 µM (inactive); with M14, 18.1 µM (inactive). The GI50 in the assay with HCT-116 was 15.7 µM (inactive); with HCT-15, 16.6 µM; in the assay on HOP-62, 20.8 µM (inactive); in the assay with TK-10, 18.7 µM (inactive); with Malme-3M, 14.2 µM (inactive); in the assay on RPMI-8226, 14.4 µM (inactive). The values for the GI50 in the assay on NCI-H23 and in the assay on SK-OV-3 were 18.1 µM (inactive) and 27.7 µM (inactive), respectively.

For the compound `CC1Cc2c(N)nc(N3CCOCC3)nc2NC1=O` (stereo unspecified), the GI50 in the assay with SK-MEL-2, in the assay on UO-31, in the assay on IGROV-1, in the assay with RXF 393, in the assay with OVCAR-8 and with M14 was > 100 µM (inactive) in each case. Moreover, the GI50 with HCT-116 was > 100 µM (inactive); with HCT-15, over 100 µM; in the assay with HOP-62, > 100 µM (inactive); in the assay on TK-10, > 100 µM (inactive); with Malme-3M, > 100 µM (inactive); in the assay with RPMI-8226, > 100 µM (inactive). In addition, the GI50 in the assay with NCI-H23 and in the assay on SK-OV-3 was > 100 µM (inactive) each time.

Regarding `COc1ccc(NC(=O)CC(=O)n2nc(C)c(/N=N/c3ccccc3C(=O)O)c2C)cc1`, the GI50 with SK-MEL-2, in the assay with UO-31, in the assay with HCC 2998, in the assay on IGROV-1, with OVCAR-4 and with OVCAR-5 was > 100 µM (inactive) throughout. Besides, the GI50 with OVCAR-8 is > 100 µM (inactive); in the assay with M14 it was > 100 µM (inactive); with HCT-116, > 100 µM (inactive); in the assay on HCT-15 it was over 100 µM; in the assay with HOP-62 it was > 100 µM (inactive); in the assay with TK-10, > 100 µM (inactive). Moreover, the GI50 in the assay on A498 is > 100 µM (inactive); in the assay on Malme-3M, > 100 µM (inactive); in the assay with RPMI-8226, > 100 µM (inactive); in the assay on NCI-H23, > 100 µM (inactive); in the assay with SK-OV-3 it was 40.3 µM (inactive).

Regarding `Cc1ccc(C2=C(c3ccccc3)C(Br)(c3ccc(C)cc3)C(c3ccccc3)=C2c2ccc(C)cc2)cc1`, the GI50 in the assay with SK-MEL-2, with HCC 2998, in the assay on IGROV-1, in the assay on OVCAR-4, in the assay on OVCAR-5 and in the assay on OVCAR-8 was > 100 µM (inactive) in each case. In addition, the GI50 in the assay with M14 is > 100 µM (inactive); in the assay on HCT-116, > 100 µM (inactive); in the assay on HCT-15, over 100 µM; with HOP-62, > 100 µM (inactive); in the assay on TK-10, > 100 µM (inactive); in the assay on A498, > 100 µM (inactive). Further, the GI50 in the assay on Malme-3M, in the assay on RPMI-8226, in the assay with NCI-H23 and with SK-OV-3 was > 100 µM (inactive) in each case.

With `CC(C(=O)C(C)O[Si](c1ccccc1)(c1ccccc1)C(C)(C)C)=P(c1ccccc1)(c1ccccc1)c1ccccc1` (stereo unspecified), the GI50 with SK-MEL-2 is 2.5 µM (inactive); in the assay with UO-31 it was 5.28 µM (inactive); in the assay on HCC 2998, 3.57 µM (inactive); in the assay with IGROV-1 it was 3.7 µM (inactive); with OVCAR-4 it was 3.37 µM (inactive); in the assay on OVCAR-5 it was 11 µM (inactive). The GI50 was 3.82 µM (inactive) in the assay with OVCAR-8; 4.32 µM (inactive) in the assay on M14; 2.98 µM (inactive) with HCT-116; 5.64 µM in the assay on HCT-15; 3.09 µM (inactive) in the assay with HOP-62; 4.76 µM (inactive) in the assay on TK-10. Further, the GI50 is 4.28 µM (inactive) in the assay with A498; 3.13 µM (inactive) in the assay with Malme-3M; 2.34 µM (inactive) in the assay on RPMI-8226; 3.23 µM (inactive) in the assay with NCI-H23; 2.42 µM (inactive) in the assay on SK-OV-3.

As to `CC1CCCCc2nc3c(c(=O)n21)CCCC3` (stereo unspecified), the GI50 in the assay with SK-MEL-2, in the assay with UO-31, in the assay on HCC 2998, with IGROV-1, with OVCAR-4 and in the assay with OVCAR-5 was > 100 µM (inactive) each time. The GI50 with OVCAR-8 is 63.2 µM (inactive); with M14 it was > 100 µM (inactive); with HCT-116 it was > 100 µM (inactive); with HCT-15, over 100 µM; in the assay with HOP-62, > 100 µM (inactive); with TK-10, > 100 µM (inactive). In addition, the GI50 with Malme-3M, with NCI-H23 and in the assay with SK-OV-3 was > 100 µM (inactive) in each case.
